# In patent US20080064040A1, “Monitoring gene silencing and annotating gene function in living cells” (Odyssey Thera, Inc., priority 2003, published 2008):
# System: phosphorylation of the ERK1 and ERK2 protein kinases
# Test: Phospho-ERK (T202/Tyr204) immunofluorescence in EGF-treated HEK 293T cells
# Assay type: cell-based, human
# Settings: EGF vs unstimulated cells, FIG. 11B
# Procedure: Cells are transfected with a collection of siRNAs, and cultured for 48 hours before fixing. Fixed cells are probed with antibodies that specifically recognize the MAPK/ERK protein kinases only when they are phosphorylated on Threonine 202 and Tyrosine 204 in the activation loop. […] Changes in the level and sub-cellular localization of phosphorylated proteins following treatment with an annotation reagent (here siRNA) indicates a functional connection between the annotation reagent and the target of interest. […] Here, 24 individual siRNA pools were transfected into human HEK cells, and their effects on the phosphorylation of the ERK1 and ERK2 protein kinases was assessed by immunofluorescence analysis.
# Human HEK 293T cells were plated at 12,000 cells/well, and transfected with 40 ng of siRNA pools targeting the indicated proteins using Lipofectamine 2000 (Invitrogen, Carlsbad Calif.). 24 hours after transfection, cells were cultured in 0.25% serum for 24 hours, then treated with EGF (Sigma; 100 ng/ml) for 5 minutes prior to fixation. For immunofluorescence, cells were rinsed with PBS, fixed with 4% formaldehyde in PBS, and permeabilized using 0.25% Triton X-100. Non-specific immunoreactivity was blocked by incubating cells with 3% BSA in PBS. […] Automated fluorescence image acquisition was carried out using Discovery-1 (Universal Imaging/Molecular Devices).
substance,measurement,value
"EGF: epidermal growth factor (Sigma), stimulus for ERK phosphorylation (NSDSECPLSHDGYCLHDGVCMYIEALDKYACNCVVGYIGERCQYRDLKWWELR; UniProt P01133 971-1023, looked up)",level of phosphorylated ERK after growth factor treatment,large increase in phosphorylated ERK
